Results published in patent publication US4401595A, “4-Allyl azetidinone intermediate for β-lactam antibacterial agents” (Beecham Group Limited, priority 1977, dated 1983).
Converted amounts (≈) assume the structure as drawn. Like-named read-outs stand apart in the source and are kept apart here.

How the values were obtained:
Klebsiella aerogenes A = assay: MIC in agar; type: cell-based; conditions: read-out: MIC, concentration required to inhibit the growth
Shigella sonnei MB 11967 = assay: MIC in agar; type: cell-based; conditions: MB11967, read-out: MIC, concentration required to inhibit the growth
Staph. aureus Russell = assay: MIC in agar; type: cell-based; conditions: Staphylococcus aureus, read-out: MIC, concentration required to inhibit the growth
Staph. aureus Oxford = assay: MIC in agar; type: cell-based; conditions: Staphylococcus aureus, read-out: concentration required to inhibit the growth
Enterobacter cloacae N1 = assay: MIC in agar; type: cell-based; conditions: read-out: concentration required to inhibit the growth
Serratia marcescens US20 = assay: MIC in agar; type: cell-based
[1] = biological target: β-lactamase, Enterobacter P99 (Enterobacter cloacae, UniProt P05364); assay: β-lactamase inhibition I50; type: biochemical
[2] = biological target: β-lactamase, Pseudomonas aeruginosa A (Pseudomonas aeruginosa, UniProt P24735); assay: β-lactamase inhibition I50; type: biochemical
[3] = biological target: β-lactamase, Escherichia coli JT4 (Escherichia coli, UniProt P62593); assay: β-lactamase inhibition I50; type: biochemical
[4] = biological target: β-lactamase, Staphylococcus aureus Russell (Staphylococcus aureus, UniProt P00807); assay: β-lactamase inhibition I50; type: biochemical
Bacillus subtilis A = assay: MIC in agar; type: cell-based; conditions: read-out: MIC, concentration required to inhibit the growth
Staph. aureus 1517 = assay: MIC in agar; type: cell-based; conditions: Staphylococcus aureus, read-out: MIC, concentration required to inhibit the growth
Strep pyogenes CN10 = assay: MIC in agar; type: cell-based; conditions: read-out: concentration required to inhibit the growth
E. coli 0111 = assay: MIC in agar; type: cell-based; conditions: Escherichia coli, read-out: concentration required to inhibit the growth
Proteus mirabilis C977 = assay: MIC in agar; type: cell-based; conditions: read-out: concentration required to inhibit the growth
[5] = system: Salmonella typhimurium CT10; assay: MIC in agar; type: cell-based; conditions: Salmonella enterica, read-out: concentration required to inhibit the growth
Citrobacter freundii E8 = assay: MIC in agar; type: cell-based; conditions: read-out: MIC, concentration required to inhibit the growth
Proteus morganii I 580 = assay: MIC in agar; type: cell-based; conditions: Morganella morganii, I580, read-out: concentration required to inhibit the growth
Proteus rettgeri WM16 = assay: MIC in agar; type: cell-based; conditions: Providencia rettgeri, read-out: concentration required to inhibit the growth
Proteus vulgaris WO 91 = assay: MIC in agar; type: cell-based; conditions: WO91, read-out: concentration required to inhibit the growth
Klebsiella aerogenes = assay: MIC in agar; type: cell-based; conditions: Klebsiella aerogenes (strain not given), read-out: concentration required to inhibit the growth
Salmonella typhimurium = assay: MIC in agar; type: cell-based; conditions: Salmonella enterica, Salmonella typhimurium (strain not given), read-out: concentration required to inhibit the growth
Strep pneumoniae = assay: MIC in agar; type: cell-based; conditions: read-out: concentration required to inhibit the growth
Strep. pyogenes = assay: MIC in agar; type: cell-based; conditions: Streptococcus pyogenes, Strep. pyogenes (strain not given), read-out: concentration required to inhibit the growth
[6] = biological target: β-lactamase, Proteus mirabilis C889; assay: β-lactamase inhibition I50; type: biochemical
[7] = biological target: β-lactamase, Klebsiella aerogenes E70; assay: β-lactamase inhibition I50; type: biochemical
[8] = biological target: β-lactamase, Pseudomonas dalgleish (Pseudomonas aeruginosa, UniProt P16897); assay: β-lactamase inhibition I50; type: biochemical
Strep faecalis I = assay: MIC in agar; type: cell-based; conditions: read-out: concentration required to inhibit the growth
Pseudomonas aeruginosa A = assay: MIC in agar; type: cell-based; conditions: read-out: concentration required to inhibit the growth
[9] = Serratia marcescens US20, read-out: concentration required to inhibit the growth

Chain of β-lactamase, Staphylococcus aureus Russell (P00807 25-281): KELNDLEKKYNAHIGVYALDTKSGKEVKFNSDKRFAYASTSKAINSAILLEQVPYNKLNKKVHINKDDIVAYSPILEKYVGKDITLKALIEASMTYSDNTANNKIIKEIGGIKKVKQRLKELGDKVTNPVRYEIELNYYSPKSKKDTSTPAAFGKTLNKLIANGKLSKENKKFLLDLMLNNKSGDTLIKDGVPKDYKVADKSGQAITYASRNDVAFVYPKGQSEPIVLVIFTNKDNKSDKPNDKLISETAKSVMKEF
Chain of β-lactamase, Escherichia coli JT4 (P62593 24-286 limits assumed): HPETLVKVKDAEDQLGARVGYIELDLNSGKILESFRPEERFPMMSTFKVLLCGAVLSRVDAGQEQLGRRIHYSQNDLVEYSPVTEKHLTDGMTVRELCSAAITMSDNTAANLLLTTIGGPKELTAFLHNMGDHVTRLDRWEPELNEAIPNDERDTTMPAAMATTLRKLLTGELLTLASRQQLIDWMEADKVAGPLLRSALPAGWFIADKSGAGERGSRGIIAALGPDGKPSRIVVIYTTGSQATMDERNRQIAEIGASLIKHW
Chain of β-lactamase, Enterobacter P99 (P05364 21-381): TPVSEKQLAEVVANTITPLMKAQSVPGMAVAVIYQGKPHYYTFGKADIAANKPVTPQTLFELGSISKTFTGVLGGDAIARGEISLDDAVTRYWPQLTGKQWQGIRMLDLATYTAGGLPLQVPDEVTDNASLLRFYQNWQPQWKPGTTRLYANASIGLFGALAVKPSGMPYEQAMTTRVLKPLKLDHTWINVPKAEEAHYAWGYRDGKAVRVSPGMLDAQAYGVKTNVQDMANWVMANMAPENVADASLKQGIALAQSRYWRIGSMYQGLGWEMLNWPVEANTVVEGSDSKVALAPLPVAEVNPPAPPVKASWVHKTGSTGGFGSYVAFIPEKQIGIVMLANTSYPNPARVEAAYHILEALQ
Chain of β-lactamase, Pseudomonas aeruginosa A (P24735 27-397): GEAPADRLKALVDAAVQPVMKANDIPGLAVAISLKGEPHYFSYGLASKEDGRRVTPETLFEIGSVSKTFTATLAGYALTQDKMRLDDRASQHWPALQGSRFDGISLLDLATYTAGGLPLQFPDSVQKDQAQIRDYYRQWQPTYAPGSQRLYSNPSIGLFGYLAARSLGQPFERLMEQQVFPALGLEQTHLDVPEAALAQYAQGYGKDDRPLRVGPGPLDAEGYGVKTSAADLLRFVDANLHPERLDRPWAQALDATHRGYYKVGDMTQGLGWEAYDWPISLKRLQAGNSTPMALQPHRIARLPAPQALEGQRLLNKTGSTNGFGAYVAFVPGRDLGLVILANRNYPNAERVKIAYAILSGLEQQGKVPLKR
Chain of β-lactamase, Pseudomonas dalgleish (P16897 18-288): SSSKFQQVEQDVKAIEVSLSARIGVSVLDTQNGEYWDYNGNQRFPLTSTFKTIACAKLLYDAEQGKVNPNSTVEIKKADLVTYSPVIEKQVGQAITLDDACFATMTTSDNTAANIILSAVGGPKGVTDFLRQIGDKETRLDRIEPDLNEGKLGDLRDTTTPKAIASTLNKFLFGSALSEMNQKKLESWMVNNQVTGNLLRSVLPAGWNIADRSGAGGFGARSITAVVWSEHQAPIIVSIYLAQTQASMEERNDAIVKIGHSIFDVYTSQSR

Structure (SMILES)	MIC (Klebsiella aerogenes A)	MIC (Shigella sonnei MB 11967)	MIC (Staph. aureus Russell)	MIC (Staph. aureus Oxford)	MIC (Enterobacter cloacae N1)	MIC (Bacillus subtilis A)	MIC (Staph. aureus 1517)	MIC (E. coli 0111)	MIC (Proteus mirabilis C977)	MIC [5]	MIC (Citrobacter freundii E8)	other results
CC(C)(O)[C@H]1C(=O)N2C(C(=O)OCc3ccccc3)=CC[C@@H]12 (relative stereo) [Example 4 cis-isomer, Benzyl 6-(2-hydroxy-2-propyl)-7-oxo-1-azabicyclo[3,2,0]hept-2-ene-2-carboxylate]	≤ 2 µg/mL	≤ 2 µg/mL	≤ 2 µg/mL	≤ 2 µg/mL	20 µg/mL (≈ 66.4 µM)	–	–	–	–	–	–	MIC (Serratia marcescens US20; [9]): 20 µg/mL (≈ 66.4 µM)
O=C(OCc1ccccc1)C1=CC[C@H]2[C@@H](C3(O)CCCCC3)C(=O)N12 (relative stereo) [compound 34, Benzyl 6-(1-hydroxycyclohex-1-yl)-7-oxo-1-azabicyclo[3,2,0]hept-2-ene-2-carboxylate]	–	–	–	–	–	–	–	–	–	–	–	IC50 [1]: 14.6 µM; IC50 [2]: 4.1 µM; IC50 [3]: 46.9 µM; IC50 [4]: 13.5 µM
COC(=O)/C=C/C[C@H]1C(=O)N2C(C(=O)OC3OC(=O)c4ccccc43)=CC[C@@H]12 (relative stereo) [compound 41, Phthalidyl 6-(3-methoxycarbonyl-2-propen-1-yl)-7-oxo-1-azabicyclo[3,2,0]hept-2-ene-2-carboxylate]	50 µg/mL (≈ 130 µM)	50 µg/mL (≈ 130 µM)	≤ 0.8 µg/mL	≤ 0.8 µg/mL	–	25 µg/mL (≈ 65.2 µM)	≤ 0.8 µg/mL	50 µg/mL (≈ 130 µM)	100 µg/mL (≈ 261 µM)	50 µg/mL (≈ 130 µM)	–	MIC (Strep pyogenes CN10): ≤ 0.8 µg/mL
N#C/C=C/C[C@H]1C(=O)N2C(C(=O)OCc3ccccc3)=CC[C@@H]12 (relative stereo) [compound 56, Benzyl 6-(3-cyano-2-propen-1-yl)-7-oxo-1-azabicyclo[3,2,0]hept-2-ene-2-carboxylat]	20 µg/mL (≈ 64.9 µM)	20 µg/mL (≈ 64.9 µM)	≤ 2 µg/mL	≤ 2 µg/mL	20 µg/mL (≈ 64.9 µM)	20 µg/mL (≈ 64.9 µM)	≤ 2 µg/mL	20 µg/mL (≈ 64.9 µM)	20 µg/mL (≈ 64.9 µM)	20 µg/mL (≈ 64.9 µM)	20 µg/mL (≈ 64.9 µM)	MIC (Serratia marcescens US20; [9]): 20 µg/mL (≈ 64.9 µM); MIC (Proteus morganii I 580): 20 µg/mL (≈ 64.9 µM); MIC (Proteus rettgeri WM16): 20 µg/mL (≈ 64.9 µM)
N#C/C=C/C[C@H]1C(=O)N2C(C(=O)OC3OC(=O)c4ccccc43)=CC[C@@H]12 (relative stereo) [compound 61, Phthalidyl 6-(3-cyano-2-propen-1-yl)-7-oxo-1-azabicyclo[3,2,0]hept-2-ene-2-carboxylat]	–	22 µg/mL (≈ 62.8 µM)	2.4 µg/mL (≈ 6.85 µM)	2.4 µg/mL (≈ 6.85 µM)	22 µg/mL (≈ 62.8 µM)	–	–	7.3 µg/mL (≈ 20.8 µM)	66.6 µg/mL (≈ 190 µM)	–	7.3 µg/mL (≈ 20.8 µM)	MIC (Serratia marcescens US20; [9]): 22 µg/mL (≈ 62.8 µM); MIC (Proteus morganii I 580): 22 µg/mL (≈ 62.8 µM); MIC (Proteus rettgeri WM16): 22 µg/mL (≈ 62.8 µM); MIC (Proteus vulgaris WO 91): 66.6 µg/mL (≈ 190 µM); MIC (Klebsiella aerogenes): 7.3 µg/mL (≈ 20.8 µM); MIC (Salmonella typhimurium): 7 µg/mL (≈ 20 µM)
COC(=O)/C=C/CC1C(=O)N2C(C(=O)OCc3ccc([N+](=O)[O-])cc3)=CCC12 (stereo not shown) [53a, p-Nitrobenzyl 6-(3-methoxycarbonyl-2-propen-1-yl)-7-oxo-1-azabicyclo[3,2,0]hept-2-ene-2-carboxylate]	–	–	2.46 µg/mL (≈ 6.37 µM)	–	–	–	–	–	–	–	–	MIC (Strep pneumoniae): 7.4 µg/mL (≈ 19.2 µM); MIC (Strep. pyogenes): 0.8 µg/mL (≈ 2.07 µM)
O=CCC1C(=O)N2C(C(=O)OCc3ccccc3)=CCC12 (stereo not shown) [compound 4, Benzyl 6-(2-oxoethyl)-7-oxo-1-azabicyclo[3,2,0]hept-2-ene-2-carboxylate]	–	–	–	–	–	–	–	–	–	–	–	IC50 [1]: 5.61 µM; IC50 [2]: > 140 µM; β-lactamase inhibition I50 [6]: 2.1 µg/mL; β-lactamase inhibition I50 [7]: > 40 µg/mL; IC50 [3]: < 4.21 µM; IC50 [8]: 3.51 µM; IC50 [4]: > 35.1 µM
COC(=O)/C=C/CC1C(=O)N2C(C(=O)OCc3ccccc3)=CCC12 (stereo not shown) [compound 5, Benzyl 6-(3-methoxycarbonyl-2-propen-1-yl)-7-oxo-1-azabicyclo[3,2,0]hept-2-ene-2-carboxylate]	20 µg/mL (≈ 58.6 µM)	20 µg/mL (≈ 58.6 µM)	2 µg/mL (≈ 5.86 µM)	–	–	20 µg/mL (≈ 58.6 µM)	2 µg/mL (≈ 5.86 µM)	–	–	–	20 µg/mL (≈ 58.6 µM)	–
COC(=O)/C=C/CC1C(=O)N2C(C(=O)OCC(Cl)(Cl)Cl)=CCC12 (stereo not shown) [compound 8, 2,2,2-Trichloroethyl-6-(3-methoxycarbonyl-2-propen-1-yl)-7-oxo-1-azabicyclo[3,2,0]hept-2-ene-2-carboxylate]	20 µg/mL (≈ 52.3 µM)	20 µg/mL (≈ 52.3 µM)	≤ 2 µg/mL	≤ 2 µg/mL	–	20 µg/mL (≈ 52.3 µM)	≤ 2 µg/mL	–	–	–	20 µg/mL (≈ 52.3 µM)	MIC (Strep faecalis I): 20 µg/mL (≈ 52.3 µM); MIC (Strep pneumoniae): 20 µg/mL (≈ 52.3 µM); MIC (Strep pyogenes CN10): 20 µg/mL (≈ 52.3 µM)
O=C(OCc1ccccc1)C1=CC[C@@H]2[C@H](C(O)c3ccccc3)C(=O)N12 (stereo partly shown) [compound 30, Benzyl 6-(1-hydroxy-1-phenylmethyl)-7-oxo-1-azabicyclo[3,2,0]hept-2-ene-2-carboxylate]	–	–	–	–	–	–	–	–	–	–	–	β-lactamase inhibition I50 [6]: 0.27 µg/mL; IC50 [4]: 0.149 µM
COC(=O)/C=C/CC1C(=O)N2C(C(=O)OCOC(=O)C(C)(C)C)=CCC12 (stereo not shown) [compound 52, Pivaloyloxymethyl 6-(3-methoxycarbonyl-2-propen-1-yl)-7-oxo-1-azabicyclo[3,2,0]hept-2-ene-2-carboxylate]	20 µg/mL (≈ 54.7 µM)	20 µg/mL (≈ 54.7 µM)	2 µg/mL (≈ 5.47 µM)	2 µg/mL (≈ 5.47 µM)	–	20 µg/mL (≈ 54.7 µM)	2 µg/mL (≈ 5.47 µM)	20 µg/mL (≈ 54.7 µM)	–	20 µg/mL (≈ 54.7 µM)	–	–
O=C(OC1OC(=O)c2ccccc21)C1=CCC2CC(=O)N12 (stereo not shown) [compound 81, Phthalidyl 7-oxo-1-azabicyclo[3,2,0]hept-2-ene-2-carboxylate]	20 µg/mL (≈ 70.1 µM)	–	20 µg/mL (≈ 70.1 µM)	20 µg/mL (≈ 70.1 µM)	20 µg/mL (≈ 70.1 µM)	20 µg/mL (≈ 70.1 µM)	–	20 µg/mL (≈ 70.1 µM)	20 µg/mL (≈ 70.1 µM)	20 µg/mL (≈ 70.1 µM)	20 µg/mL (≈ 70.1 µM)	MIC (Serratia marcescens US20; US20, Serratia marcescens VS20, read-out: concentration required to inhibit the growth): 20 µg/mL (≈ 70.1 µM); MIC (Pseudomonas aeruginosa A): 160 µg/mL (≈ 561 µM)
